Measurements reported in US6331555A, “Treatment of platelet derived growth factor related disorders such as cancers” (priority 1999, dated 2001).

Columns and labels:
LD10 = settings: in vivo
C6 cells = assay: Intracerebral C6 tumor, athymic mice, survival; type: in vivo, rat; settings: IC C6, athymic mice
Procedure: FIG. 4. In two separate experiments, C6 cells (1×10^5 cells in 4 μL) were implanted into the cerebrum of BALB/c, nu/nu mice. […] V=vehicle control. n=8 to 12 (Expt #1), or 5 (Expt #2) animals per group. * P<0.00001; ** P<0.002; *** P<0.02 compared to vehicle control.
For the mouse IC model, rat C6 glioma cells were harvested and suspended in sterile PBS at a concentration of 2.5×10^7 cells/mL and placed on ice. Cells were implanted into BALB/c, nu/nu mice in the following manner: the frontoparietal scalps of mice were shaved with animal clippers if necessary before swabbing with 70% ethanol. Animals were anesthetized with isofluorane and the needle was inserted through the skull into the left hemisphere of the brain. Cells were dispensed from Hamilton Gas-tight Syringes using 30 gauge 1/2 inch needles fitted with sleeves that allowed only a 3 mm penetration. A repeater dispenser was used for accurate delivery of 4 μL of cell suspension.

SKOV3T cells = assay: Survival, IP SKOV3T xenograft in BALB/c nu/nu mice; type: in vivo, human; settings: 15 mg/kg/day IP in DMSO
Procedure: Cell lines were grown in the appropriate media as described in Appendix 1. Cells were harvested and washed in sterile PBS or medium without FBS, resuspended to a suitable concentration, and injected into the IP cavity of […] of the appropriate strain. Prior to implantation of 7TD1 cells, C57BL/6 mice were primed by IP injection of 0.5 mL Pristane. SKOV3T cells were implanted into athymic mice without Pristane priming. Mice were observed daily for the occurrence of ascites formation. Individual animals were sacrificed when they presented with a weight gain of 40%, or when the IP tumor burden began to cause undue stress and pain to the animal.
In one experiment, SKOV3T cells (2×10^6 cells) were implanted into the IP cavity of BALB/c, nu/nu mice.

spleen cells = assay: Normal immune function in mice responding to a primary immunization; type: in vivo, mouse; settings: 20 mg/kg/day
Source text: At the indicated times, animals were sacrificed, and the spleens were aseptically removed and placed into sterile medium. Spleens were processed into single cell suspensions by grinding between sterile frosted glass microscope slides. After a single wash to remove tissue debris, the spleen cells were resuspended in a hypotonic ammonium chloride buffer to lyse erythrocytes. Lymphocytes were washed and resuspended to the appropriate concentrations in complete medium, consisting of RPMI plus 10% heat-inactivated FBS, 2 mM glutamine, 50 μM β-mercaptoethanol, and penicillin-streptomycin. The responses of the lymphocytes were examined in the following assays according to accepted procedures (Current Protocols in Immunology. Coligan, J. E., Kruisbeek, A. M., Margulies, D. H., Shevach, E. M., Strober, W. (eds.) John Wiley and Sons, Inc., 1992).
The T-cell mitogen, ConA, and the T-cell independent B-cell mitogen, LPS, were added to 96-well round-bottom wells at the indicated concentrations. Lymphocytes from normal, vehicle-dosed, and drug-dosed animals were added at a final concentration of 2.5×10^5 /well. Cultures were usually set up in triplicate or quadruplicate. The plates were incubated at 37° C. in a humidified atmosphere containing 5% CO2 for the indicated times. Supernatants (approximately 100 μL) were carefully removed from the wells and stored at -80° C. for lymphokine and immunoglobulin analyses. To measure proliferation of the lymphocytes, 1 μCi of ^3 H-thymidine was added to each well, and the plates were incubated for 6 hr. The cultures were harvested onto glass fiber filters, and the incorporated radioactivity was quantitated by liquid scintillation counting (Betaplate, Wallac).
Lymphocytes from normal, vehicle-dosed, and drug-dosed animals were plated at 2.5×10^5 /well in round-bottom 96-well plates. Stimulator cells were then added at the same cell concentration. […] The plates were incubated for 3 to 4 days, at which time supernatants were harvested and the cultures were pulsed as described for the mitogen assays.
Supernatants from mitogen and MLR cultures were assayed for IL-2 and IL-6 content by the ability to support the growth of factor-dependent cell lines. HT-2 cells (10^4 /well, IL-2-dependent) and 7TD1 cells (2×10^3 /well, IL-6-dependent) were plated in 96-well flat-bottom plates, in 50 μL/well. Supernatants were added in 50 μL/well, and the plates were incubated overnight (HT-2) or four days (7TD1). Cellular proliferation was determined in the MTT colorimetric assay (Appendix 3.1).
Flat bottom 96-well EIA plates were coated with goat anti-mouse Ig antibodies (Southern Biotechnology) overnight at 4° C. The plates were blocked by the addition of PBS+1% BSA. After washing with PBS, supernatants from murine mitogen and MLR cultures were added and incubated at room temperature for 1 hr. The plates were washed with PBS, then HRP-labeled goat anti-mouse Ig antibodies were added and incubated at room temperature for 1 hr. The plates were washed and developed by the addition of substrate (ABTS).
BALB/c mice were immunized SC with 50 μg keyhole limpet hemocyanin (KLH) suspended in complete Freund's adjuvant (CFA); control mice were mock-immunized with an emulsion of phosphate-buffered saline (PBS) in CFA. […] On day 14, all mice were sacrificed, and their spleen cells were assayed. In addition , immune e responses to KLH and tetanus toxoid were measured as described in Appendix 5.

[1] = system: mice implanted with C6 cells; assay: Effects of A10 on mortality (mice implanted with C6 cells); type: in vivo, mouse
Procedure: (§1) Cell lines were grown in appropriate medium (see Appendix 1). Cells were harvested at or near confluency with 0.05% Trypsin-EDTA and pelleted at 450×g for 10 min. Pellets were resuspended in sterile PBS or media (without FBS) to a particular concentration and the cells were implanted into the hindflank of mice. Tumor growth was measured over 3 to 6 weeks using venier calipers. Tumor volumes were calculated as a product of length×width×height unless otherwise indicated. P values were calculated using the Students' t-test.

[2] = as above; type: in vivo, mouse; settings: mouse, in vivo, ip
Procedure: as §1

c1ccc(-c2cnc3cc4ccccc4cc3n2)cc1 [Compound G22]
LD10 (LD10): 25 mg/kg

Cc1oncc1C(=O)Nc1ccc(C(F)(F)F)cc1 [Compound A10, 5-methylisoxazole-4 carboxylic acid-(4-trifluromethyl)-anilide]
average survival time (C6 cells): significantly increased compared to controls | survival (SKOV3T cells): significantly increase the survival | animals alive (SKOV3T cells; after 32 days): 40% | animals died (SKOV3T cells; by 28 days): one of A10 treated animals died by 28 days | IL-2 production (spleen cells; Allo): 0 | IL-6 production (spleen cells; Allo): 0 | Ig production (spleen cells; Allo): 0 | IL-2 production (spleen cells; ConA): 0 | IL-6 production (spleen cells; ConA): 0 | Ig production (spleen cells; ConA): 0 | IL-2 production (spleen cells; KLH): 0 | IL-6 production (spleen cells; KLH): 0 | Ig production (spleen cells; KLH): 0 | IL-2 production (spleen cells; LPS): 0 | IL-6 production (spleen cells; LPS): 0 | Ig production (spleen cells; LPS): 0 | mortality ([1]; 20 mg/kg/day (DMSO), 21 treatments, n 26): 54% | mortality ([1]; 20 mg/kg/day (PBTE), 20-48 treatments, n 12): 8% | mortality rate by formulation ([1]; PBTE:D5W compared to DMSO and PBTE): significantly reduced the mortality rate compared to DMSO formulations, and PBTE formulations | mortality ([2]; 25 mg/kg/day (PBTE:D5W), 67 treatments, n 8): 0% | mortality ([2]; 30 mg/kg/day (PBTE), 48 treatments, n 4): 50% | mortality ([2]; 40 mg/kg/day (PBTE), 48 treatments, n 4): 75%
